Data on 37 compounds can be found in patent publication EP4650002A1 (Ludwig-Maximilians-Universität, priority 2024, dated 2025).

This experiment has as its target T1, human TLX (Homo sapiens, UniProt Q9Y466).
T1 construct: expressed in transfected cells; host or cells: HEK293T
In words: Gal4 hybrid reporter gene assay (TLX modulation). It is filed as cell-based. More on the design: key to relative reporter activity: fraction of DMSO control (DMSO = 1). The settings on record: for EC50: Gal4-TLX hybrid reporter in HEK293T cells, 16 h incubation; for relative reporter activity: DMSO control = 1. How it is done:
In the Tables, the TLX relative reporter activity is expressed as EC50 (in µM) for each listed compound. "EC50" refers to a measure of the concentration of a compound which induces a biological response halfway between the baseline and maximum after a specified exposure time. […] The EC50 is measured via a hybrid reporter gene assay, employing the transfection of a reporter (firefly luciferase with Gal4 response element), a control gene (Renilla luciferase), a transcriptional activator (Gal4-VP16) and a hybrid receptor consisting of the TLX ligand binding domain (LBD) and the Gal4 DNA binding domain (DBD).
Hybrid reporter gene assays. […] After 24 h, medium was changed to Opti-MEM without supplements and cells were transiently transfected using Lipofectamine LTX reagent (Invitrogen, Carlsbad, CA, USA) according to the manufacturer's protocol. Five hours after transfection, cells were incubated with the test compounds in Opti-MEM supplemented with penicillin (100 U/mL), streptomycin (100 µg/mL) and 0.1% DMSO for 16 h before luciferase activity was measured using the Dual-Glo Luciferase Assay System (Promega) according to the manufacturer's protocol on a Tecan Spark luminometer (Tecan Deutschland GmbH, Crailsheim, Germany). Firefly luminescence was divided by Renilla luminescence and multiplied by 1000 resulting in relative light units (RLU) to normalize for transfection efficiency and cell growth. Fold activation was obtained by dividing the mean RLU of test compound by the mean RLU of the untreated control. All samples were tested in at least three biologically independent experiments in duplicates. For dose-response curve fitting and calculation of EC50 values, the equation "[Agonist] vs. response -- Variable slope (four parameters)" was used in GraphPad Prism (version 7.00, GraphPad Software, La Jolla, CA, USA).

The mark [1] stands for this setting: minimal remaining or maximum reporter activity after treatment, in brackets below the EC50, <1 agonism, >1 inverse agonism.

T1 sequence (Q9Y466 155-383 limits assumed): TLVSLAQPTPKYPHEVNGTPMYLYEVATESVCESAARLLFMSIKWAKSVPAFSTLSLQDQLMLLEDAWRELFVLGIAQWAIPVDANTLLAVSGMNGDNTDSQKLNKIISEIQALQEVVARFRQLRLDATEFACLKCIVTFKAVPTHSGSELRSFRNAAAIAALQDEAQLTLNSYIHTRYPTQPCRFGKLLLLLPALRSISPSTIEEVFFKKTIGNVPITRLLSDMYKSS

As a reminder, the EC50 is the concentration at which the effect is half-maximal. As to `Cc1cc(-c2cc(NC(=O)c3cc4ccccc4s3)cc(C(F)(F)F)c2)ccn1` [compound 81, N-(3-(2-methylpyridin-4-yl)-5-(trifluoromethyl)phenyl)benzo[b]thiophene-2-carboxamide], a half-maximal effect (EC50) was put at 1.2 ± 0.2 µM. The compound also showed a relative reporter activity under setting [1] of 0.39±0.05. For `CC(=O)c1cncc(-c2cc(N)cc(C(F)(F)F)c2)c1` [compound 70, 1-(5-(3-amino-5-(trifluoromethyl)phenyl)pyridin-3-yl)ethan-1-one], a half-maximal response (EC50) required 4.6 ± 2.4 µM.

As for `COc1ccc(C(=O)Nc2cc(-n3cnc(C)c3)cc(C(F)(F)F)c2)cc1` [compound 17, 4-methoxy-N-(3-(4-methyl-1H-imidazol-1-yl)-5-(trifluoromethyl)phenyl)benzamide], the EC50 stood at 5.2 ± 0.4 µM. Moreover, the relative reporter activity under setting [1] is given as 0.42±0.03.

In the case of `Cn1cc(-c2cccc(N)c2)cn1` [compound 105, 3-(1-methyl-1H-pyrazol-4-yl)aniline], the relative reporter activity result (at 30 µM) was “inactive at 30 µM”. With `Cc1cn(-c2cc(NC(=O)c3ccc(C(F)(F)F)cc3)cc(C(F)(F)F)c2)cn1` [compound 19, N-(3-(4-mefhyl-1H-imidazol-1-yl)-5-(trifluoromefhyl)phenyl)-4-(frifluoromethyl)-benzamide], the EC50 is 3.3 ± 1.2 µM. The compound further returned a relative reporter activity under setting [1] of 0.59±0.10. With `Cc1cc(-c2cccc(N)c2)ccn1` [compound 104, 3-(2-methylpyridin-4-yl)aniline], the relative reporter activity result (at 50 µM) is on record as “(0.73±0.06 at 50 µM)”.

For `Cc1nn(C)c(C)c1-c1cc(N)cc(C(F)(F)F)c1` [compound 41, 3-(trifluoromethyl)-5-(1,3,5-trimethyl-1H-pyrazol-4-yl)aniline], the midpoint of the response, the EC50, lay at 4.2 ± 0.9 µM. Under setting [1], this compound registered a relative reporter activity of 0.34±0.09. Compound `Cc1cc(-c2cc(N)cc(OC(F)(F)F)c2)ccn1` [compound 113, 3-(2-methylpyridin-4-yl)-5-(trifluoromethoxy)aniline] gave an EC50 of 13.6 ± 0.6 µM. `Nc1cc(-c2nccs2)cc(C(F)(F)F)c1` [compound 53, 3-(thiazol-2-yl)-5-(trifluoromethyl)aniline]: the relative reporter activity result (at 100 µM) was “(0.63±0.10 at 100 µM)”. In turn, `Cc1cn(-c2cc(NC(=O)Cc3cccnc3)cc(C(F)(F)F)c2)cn1` [compound 21, N-(3-(4-methyl-1H-imidazol-1-yl)-5-(trifluoromethyl)phenyl)-2-(pyridin-3-yl)acetamide] gave an EC50 of 1.4 ± 0.3 µM. This compound displayed a relative reporter activity under setting [1] of 0.21±0.07. `Cc1cc(-c2cc(N)ccc2C(F)(F)F)ccn1` [compound 107, 3-(2-methylpyridin-4-yl)-4-(trifluoromethyl)aniline]: under “at 50 µM”, the relative reporter activity entry is on record as “(0.39±0.04 at 50 µM)”. On to `Nc1cc(-c2ccc3sccc3c2)cc(C(F)(F)F)c1` [compound 92, 3-(benzo[b]thiophen-5-yl)-5-(trifluoromethyl)aniline], for which the relative reporter activity entry (at 10 µM) is “inactive at 10 µM”.

`Cc1c(-c2cc(N)cc(C(F)(F)F)c2)cnn1C` [compound 49, 3-(1,5-dimethyl-1H-pyrazol-4-yl)-5-(trifluoromethyl)aniline] yielded an EC50 of 3.9 ± 1.6 µM. In addition, the relative reporter activity under setting [1] is 0.49±0.11. As for `Cc1ccc(-c2cc(N)cc(C(F)(F)F)c2)s1` [compound 55, 3-(5-methylthiophen-2-yl)-5-(trifluoromethyl)aniline], the relative reporter activity (at 30 µM) came out at 2.2±0.6. Regarding `Cc1cn(-c2cc(NC(=O)c3ccncc3)cc(C(F)(F)F)c2)cn1` [compound 11, N-(3-(4-methyl-1H-imidazol-1-yl)-5-(trifluoromethyl)phenyl)isonicotinamide], under “at 20 µM”, the relative reporter activity entry was “(0.41±0.05 at 20 µM)”. As to `Cc1cn(-c2cc(NC(=O)c3ccc(Cl)c(Cl)c3)cc(C(F)(F)F)c2)cn1` [compound 16, 3,4-dichloro-N-(3-(4-methyl-1H-imidazol-1-yl)-5-(trifluoromethyl)phenyl)-benzamide], the response was half-maximal at 2.1 ± 0.9 µM (EC50). The relative reporter activity under setting [1] turned out to be 0.33±0.12. `Cc1cn(-c2cccc(N)c2)cn1` [compound 101, 3-(4-methyl-1H-imidazol-1-yl)aniline]: for the setting “at 30 µM”, the relative reporter activity entry was “inactive at 30 µM”. `Nc1cc(-c2cccc3[nH]ccc23)cc(C(F)(F)F)c1` [compound 99, 3-(1H-Indol-4-yl)-5-(trifluoromethyl)aniline] returned an EC50 of 3 ± 0.2 µM. With `Nc1cc(-n2cccc2)cc(C(F)(F)F)c1` [compound 34, 3-(1H-pyrrol-1-yl)-5-(trifluoromethyl)aniline], it took 15 ± 7 µM to reach a half-maximal effect (EC50). For the same compound, under setting [1], the relative reporter activity is 0.23±0.15. `Nc1cc(-n2ccnc2)cc(C(F)(F)F)c1` [compound 33, 3-(1H-imidazol-1-yl)-5-(trifluoromethyl)aniline] registered an EC50 of 4.4 ± 0.9 µM. Consider `Cc1cnn(-c2cc(N)cc(C(F)(F)F)c2)c1` [compound 37, 3-(4-methyl-1H-pyrazol-1-yl)-5-(trifluoromethyl)aniline], for which the relative reporter activity entry (at 100 µM) is listed as “(0.48±0.09 at 100 µM)”. `Cc1cn(-c2cc(NC(=O)c3ccc(Cl)c4ccccc34)cc(C(F)(F)F)c2)cn1` [compound 31, 4-chloro-N-(3-(4-methyl-1H-imidazol-1-yl)-5-(trifluoromethyl)phenyl)-1-naphthamide] showed an EC50 of 1.8 ± 0.4 µM. Under setting [1], this compound gave a relative reporter activity of 0.34±0.11. As for `Cc1cc(-c2cc(N)cc3[nH]ccc23)ccn1` [compound 115, 4-(2-methylpyridin-4-yl)-1H-indol-6-amine], the EC50 came to 3.8 ± 0.7 µM. The same measure, in the same setting: the same measure for `Cc1cc(-c2cc(N)cc(C(F)(F)F)c2)cc(C)n1` [compound 88, 3-(2,6-dimethylpyridin-4-yl)-5-(trifluoromethyl)aniline]: 1.6 ± 0.8 µM; for `Nc1cc(-c2ccn3ccnc3c2)cc(C(F)(F)F)c1` [compound 94, 3-(imidazo[1,2-a]pyridin-7-yl)-5-(trifluoromethyl)aniline]: 3.7 ± 0.6 µM. As to `Nc1cc(-c2ccc3occc3c2)cc(C(F)(F)F)c1` [compound 91, 3-(benzofuran-5-yl)-5-(trifluoromethyl)aniline], the relative reporter activity result (at 10 µM) is listed as “(0.84±0.06 at 10 µM)”. `Cn1ccc2cc(-c3cc(N)cc(C(F)(F)F)c3)ccc21` [compound 90, 3-(1-methyl-1H-indol-5-yl)-5-(trifluoromethyl)aniline] showed an EC50 of 1.1 ± 0.1 µM. With `Cc1cc(-c2cc(NC(=O)c3ccc4ccccc4c3)cc(C(F)(F)F)c2)ccn1` [compound 80, N-(3-(2-methylpyridin-4-yl)-5-(trifluoromethyl)phenyl)-2-naphthamide], it took 0.97 ± 0.22 µM to reach a half-maximal effect (EC50). In addition, under setting [1], the relative reporter activity came to 0.29±0.06.

Take `Cc1cc(-c2cc(N)cc(Cl)c2Cl)ccn1` [compound 114, 3,4-dichloro-5-(2-methylpyridin-4-yl)aniline]: the EC50 came out at 9.6 ± 0.7 µM. In turn, `Cc1cc(C)c(-c2cc(N)cc(C(F)(F)F)c2)s1` [compound 56, 3-(3,5-dimethylthiophen-2-yl)-5-(trifluoromethyl)aniline] had a relative reporter activity (at 50 µM) of 3.4±0.3. As for `CC(=O)c1cc(-c2cc(NC(=O)c3ccnc4ccccc34)cc(C(F)(F)F)c2)cs1` [compound 61, N-(3-(5-acetylthiophen-3-yl)-5-(trifluoromethyl)phenyl)quinoline-4-carboxamide], the EC50 worked out at 1.1 ± 0.3 µM. In addition, the relative reporter activity under setting [1] turned out to be 0.17±0.08. For `COc1cc(N)cc(-c2ccnc(C)c2)c1` [compound 108, 3-methoxy-5-(2-methylpyridin-4-yl)aniline], the EC50 amounted to 15 ± 4 µM.

Compound `Nc1cc(-c2ccncc2)cc(C(F)(F)F)c1` [compound 73, 3-(pyridin-4-yl)-5-(trifluoromethyl)aniline] showed an EC50 of 13 ± 4 µM. Under setting [1], this compound showed a relative reporter activity of 0.18±0.13. Compound `Cn1cc(-c2cc(N)cc(C(F)(F)F)c2)cn1` [compound 38, 3-(1-methyl-1H-pyrazol-4-yl)-5-(trifluoromethyl)aniline] showed an EC50 of 9.5 ± 4.4 µM. The compound further returned a relative reporter activity under setting [1] of 0.43±0.11. For `Cc1cc(-c2cc(N)cc(C#N)c2)ccn1` [compound 109, 3-amino-5-(2-methylpyridin-4-yl)benzonitrile] the same measures were 5.9 ± 2.2 µM and 0.40±0.11. `O=C(Nc1cc(-n2cnc3ccccc32)cc(C(F)(F)F)c1)c1ccnc2ccccc12` [compound 36, N-(3-(1H-benzo[d]imidazol-1-yl)-5-(trifluoromethyl)phenyl)quinoline-4-carboxamide]: the relative reporter activity result (at 10 µM) is reported as “(0.24±0.04 at 10 µM”.

On to `C=C(C(=O)Nc1cc(-c2ccnc(C)c2)cc(C(F)(F)F)c1)c1ccc2cc(OC)ccc2c1` [compound 83, 2-(6-methoxynaphthalen-2-yl)-N-(3-(2-methylpyridin-4-yl)-5-(trifluoromethyl)-phenyl)propenamide], for which the relative reporter activity entry (at 10 µM) is “(0.66±0.07 at 10 µM)”.
